Values belong to the molecule of their own block, whether it stands above or below them. *1 amine or outer side, *2 acyl side, *3 side chain or, on linkers, in order; H or OH if unused. Side-chain parts run from the residue outwards. [ ]: non-standard residue; d: D form. The star is where a group is joined. C18 diacid = O=C(O)CCCCCCCCCCCCCCCCC(=O)*; γGlu = O=C(O)[C@H](CCC(=O)[*:2])N[*:1]; AEEA = NCCOCCOCC(=O)O; Aib = CC(C)(N)C(=O)O
Columns and labels:
human serum albumin [1] = target: human serum albumin (Homo sapiens, UniProt P02768); experiment: Human serum albumin binding by surface plasmon resonance (Biacore 8K); details: human serum albumin on CM5 chip, SPR
Experimental: Method: Binding of molecules to serum albumin was characterized by surface plasmon resonance in a Biacore 8K instrument. Serum albumin from different species was covalently bound to CM5 sensor chips surface until 4000 RU was reached. The chip was blocked by 1M ethanolamine with flowrate of 10 μL/min for 420 s. Each molecule sample was diluted and injected at a flow rate of 30 μL/min to allow for binding to chip-bound albumin for 120 s and for dissociation for 300 s. Binding buffer without molecule was sent over the chip at the flow rate of 20 seconds to allow spontaneous dissociation of bound molecule for 30 seconds.

db/db mice = experiment: Non-fasting glucose in db/db mice after single s.c. dose; assay type: in vivo
Experimental: Method: 10 weeks old male db/db mice were injected subcutaneously with GLP-1 polypeptide conjugate once. […] Delta blood glucose is glucose subtracted by baseline level. […] The area under the curve for delta blood glucose from 0 until 192 hours (AUCΔBG 0-192h) was calculated.

GLP-1 receptor = GLP-1 receptor (Homo sapiens, UniProt P43220); details: J. Med. Chem. 2015, 58, 7370-7380; cited from earlier work
C57BL/6 mice = experiment: Body weight loss in C57 lean mice after single s.c. dose; assay type: in vivo; details: 30 nmol/kg s.c. once
Experimental: Method: 10 week old male C57BL/6 mice were injected subcutaneously with protein once on Day1. Body weight was measured daily and five animals were used for each treatment group. Body weight was monitored for each individual animal. % BW loss=100*(BW on Day n−BW on Day 1)/(BW on Day 1). […] The area under the curve for body weight loss (%) from 0 until 8 days (AUG ΔBW 0-8d) was calculated.

human serum albumin [2] = target: T1, human serum albumin (human, UniProt P02768 25-609); experiment: SPR (Biacore 8K), albumin on CM5 chip
T1 construct: also called HSA

GLP-1 receptor, sequence (P43220 24-463, species assumed): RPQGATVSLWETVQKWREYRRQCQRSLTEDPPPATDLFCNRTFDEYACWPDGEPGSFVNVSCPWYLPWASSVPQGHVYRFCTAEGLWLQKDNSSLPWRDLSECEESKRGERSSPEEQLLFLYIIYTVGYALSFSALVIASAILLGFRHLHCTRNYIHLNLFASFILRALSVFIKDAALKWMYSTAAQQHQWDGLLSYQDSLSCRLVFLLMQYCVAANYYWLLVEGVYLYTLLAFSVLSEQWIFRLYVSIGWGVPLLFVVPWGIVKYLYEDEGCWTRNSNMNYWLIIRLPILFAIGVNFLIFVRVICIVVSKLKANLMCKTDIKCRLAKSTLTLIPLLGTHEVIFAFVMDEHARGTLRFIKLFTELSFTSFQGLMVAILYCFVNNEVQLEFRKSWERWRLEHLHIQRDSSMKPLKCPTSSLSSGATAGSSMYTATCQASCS

Molecule: semaglutide
Rmax (RU) (human serum albumin [1]): 55.2 RU
AUC ΔBG 0-192 h (db/db mice; 3 nmol/kg s.c. once): -317.0 mmol·h/L
AUC ΔBG 0-192 h (db/db mice; 10 nmol/kg s.c. once): -583.4 mmol·h/L
AUC ΔBG 0-192 h (db/db mice; 30 nmol/kg s.c. once): -527.1 mmol·h/L
loss in GLP-1 receptor binding in presence of human serum albumin (HSA) relative to its unconjugated counterpart (GLP-1 receptor): 939 fold
AUC ΔBW 0-8 d (day*%) (C57BL/6 mice; Study 1 (FIG. 1A)): −9.3 day*%
AUC ΔBW 0-8 d (day*%) (C57BL/6 mice; Study 2 (FIG. 1B)): −13.2 day*%

B1: Molecule 002 (peptide)
peptide: H[Aib]EGTFTSDVSSYLEGQAAREFIAWLVRGGGGAQPGAQPGAQPGAQPGAQPGAQPGAQPGAQPGAQPGQK([AEEA-AEEA-γGlu-C18 diacid])P
notes: Mono-acylated GLP-1 polypeptide conjugate; also called 1006
binding result (human serum albumin [2]): binds

Results, then the molecule that gave them:

binding result (human serum albumin [2]): binds
B2: Molecule 019 (peptide)
peptide: H[Aib]EGTFTSDVSSYLEEQAAREFIAWLVRGGGGAQPGAQPGAQPGAQPGAQPGAQPGAQPGAQPGAQPGQK([AEEA-AEEA-γGlu-C18 diacid])P
notes: Mono-acylated GLP-1 polypeptide conjugate; also called 1023

binding result (human serum albumin [2]): binds
B3: Molecule 012 (peptide)
peptide: H[Aib]EGTFTSDVSSYLEEQAAK([AEEA-AEEA-γGlu-C18 diacid])EFIAWLVRGGGGAQPGAQPGAQPGAQPGAQPGAQPGAQPGAQPGAQPGQK([AEEA-AEEA-γGlu-C18 diacid])P
notes: Double-acylated GLP-1 polypeptide conjugate

Reference: patent US20250276068A1, “PHARMACEUTICAL COMPOSITIONS OF POLYPEPTIDE CONJUGATES AND METHODS OF USES THEREOF” (BEIJING QL BIOPHARMACEUTICAL CO., LTD., priority 2022, published 2025)
